The text below walks through data of patent US20170128592A1, “TARGETED POLYMERIC NANO-COMPLEXES AS DRUG DELIVERY SYSTEM” (Indian Institute of Technology, Bombay, priority 2015, published 2017).

Format in all cases: cell-based, human
For test [1], the system named is Huh7 cells. As to the kind of experiment: SRB cytotoxicity assay. The note with it: Huh7, 48 hr incubation, mean ± SD of three experiments. How it is done: For cytotoxicity measurements, Hep G2 and Huh7 cells were incubated in 96-well plates (Nunc, USA) at 5×10^4 cells/well density and then treated with bare PLGA-b-PEG NP, Cet-PLEA-b-PEG NP (50-250 μg/mL), free drug CA4, its nano-complexes ([…]) and free drug 2 ME, its nano-complexes (1-15 μM) for 48 hr. […] The standard SRB assay was used to measure the cell viabilities. The absorbance was measured with a 96-well fluorescence plate reader (SPECTRAmax M2, Molecular Devices, USA) equipped with the SOFTmax Pro software (Molecular Devices), at a 550 nun wavelength. IC50 values of the free drugs and all the nanocomplexes were evaluated using OriginPro 8.0 software.
Background: In SRB staining, fixed cells bind dye roughly in proportion to their protein.

The subject of test [2] is Huh7 cells. Put plainly: Annexin V/PI apoptosis assay by flow cytometry. The note with it: IC50 concentrations, 48 hr. How it is done: Annexin V and Propidium iodide (PI) staining detection kit was used to quantify apoptotic cells. […] A combination of Cet-PLGA-b-PEG-CA4 NP Cet-PLEA-b-PEG-2ME NP (15 nM+5 μM) was also evaluated. Untreated and bare PLGA-b-PEG NP treated cells served as the negative controls. Cells were washed twice with PBS and resuspended in 400 μL of 1× binding buffer. Then, 5 μL of Annexin V-FITC and PI solution were added to the test samples, incubated for 15 min in dark at room temperature, and analyzed using flow cytometer BD FACS ARIA special order system equipped with the BD FACSDiva. (Becton and Dickinson, USA) software program. The fluorescence of 20,000 cells were gated and counted for each sample.

In test [3] the test system is pEGFR expression in Huh7 cells. Put plainly: Immunofluorescence (CLSM) of pEGFR expression. To be noted: 48 hr. As to the method:
(§1) To evaluate the effect of nanocomplexes on EGFR and tubulin interactions, Huh7 cells (5×10^4 cells/well) in 24 well plates were treated with 15 nM of CA4, PLGA-b-PEG-CA4 NP, Cet-PLGA-b-PEG-CA4 NP, 5 μM of 2 ME, PLGA-b-PEG-2 ME NP, Cet-PLGA-b-PEG-2 ME NP and combinatorial Cet-PLEA-b-PEG-CA4 NP+Cet-PLGA-b-PEG-2 ME NP (15 nM+5 μM) for 48 hr. Untreated and bare PLGA-b-PEG NP treated cells served as the negative controls. Cells were then fixed with 3.7% formaldehyde at 37° C. for 30 min and immunostained with primary antibodies anti-EGFR, anti-pEGFR XP rabbit monoclonal antibodies (Cell Signaling Technology Inc., USA), anti-α-Tubulin mouse monoclonal antibody (Signa Aldrich, USA) and anti-pHistone H3 rabbit polyclonal antibody (Ser-10, Santa Cruz Biotechnology, USA) followed by incubation with secondary antibody FITC-conjugated anti-mouse IgG or FITC-conjugated anti-rabbit IgG (Sigma Aldrich, USA) or anti-mouse IgG-Alexa 568 conjugate (Invitrogen, USA). Hoechst 33258 was used for DNA counterstaining and cells were examined under CLSM.

Test [4] has as its system pHistone H3 in Huh7 cells. Put plainly: Immunofluorescence of Histone H3 phosphorylation (Serine 10). The note with it: 48 hr. How it is done: as §1

As for `COc1cc2c(cc1O)CC[C@@H]1[C@@H]2CC[C@]2(C)[C@@H](O)CC[C@@H]12` [2 ME, 2-methoxyestradiol], in the test on Huh7 cells [1], inhibition was half-maximal at 3500 nM (IC50). The induction of apoptosis in the test with Huh7 cells [2] worked out at 2.6%. The “effect on pEGFR expression by CLSM” value in test [3] (5 μM) is given as “moderately affected”. In test [4] (5 μM), the “pHistone H3 positive cells” value turned out to be 2±0.7%.
Take `COc1ccc(/C=C\c2cc(OC)c(OC)c(OC)c2)cc1O` [CA4, combretastatin A4]: in the test with Huh7 cells [1], it took 14.9 nM to reach half-maximal inhibition (IC50). The induction of apoptosis with Huh7 cells [2] was 11.5%. Besides, the “effect on pEGFR expression by CLSM” value in test [3] (15 nM) is on record as “moderately affected”. Further, in test [4] (15 nM), the “pHistone H3 positive cells” value is given as 4±0.3%.

What is called IC50 is the concentration at which inhibition is half-maximal.
